Measured values taken from ChEMBL document CHEMBL1153799, “Synthesis of sialic acid derivatives having a C=C double bond substituted at the C-5 position and their glycopolymers” (Bioorg Med Chem Lett, 2009).
The source made the active and inactive calls.

What was measured:
Format in all cases: functional, organism-based
H3N2 subtype = experiment: Inhibition of human Influenza virus A/Aichi/2/68(H3N2)-mediated hemagglutinination of erythrocytes; settings: A/Aichi/2/1968(H3N2)
Influenza A virus [1] = experiment: Inhibition of human Influenza virus A/PR/8/34 (H1N1)-mediated hemagglutinination of erythrocytes; settings: A/Puerto Rico/8/1934(H1N1)
Influenza A virus [2] = experiment: Inhibition of duck Influenza A virus A/DK/HK/313/78(H5N3)-mediated hemagglutinination of erythrocytes

Measured: Activity

C=CC(=O)NCC(=O)N[C@H]1[C@H]([C@H](O)[C@H](O)CO)O[C@](SCCCCCCCCCCCC)(C(=O)O)C[C@@H]1O
active: H3N2 subtype | Influenza A virus [1] | Influenza A virus [2]

C=CC(=O)NCCCCCC(=O)N[C@H]1[C@H]([C@H](O)[C@H](O)CO)O[C@](SCCCCCCCCCCCC)(C(=O)O)C[C@@H]1O
active: H3N2 subtype | Influenza A virus [1] | Influenza A virus [2]
